Data on 1 molecule can be found in PubChem BioAssay AID1259411 (Chemical Carcinogenesis Research Information System (CCRIS), 2018).

The test system of this data set is rodent carcinogenicity bioassays, tumor incidence. Nature of the data set: CCRIS carcinogenicity studies. The note with it: Species: RAT, Dose: 0, Dose: 0. An outline of the steps: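 Archive of carcinogenicity, mutagenicity, tumor promotion and tumor inhibition results drawn from journals, NCI reports and other sources, expert-reviewed; covers 1985-2011 and is no longer updated.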

SMILES strings stand for the structures. Active and inactive are the calls of the source. No rule for the calls is given here.

For the molecule `C=Cc1ccccc1`, the carcinogen call is, setting by setting: (Strain/Sex: F344/FEMALE, Route: GAVAGE, 500 MG/KG FOR 103 WK (STUDY DURATION: 104 WK), 1,000, 2,000 MG/KG FOR 78 WK (STUDY DURATION: 105 WK), 500 MG/KG FOR 103 WK (STUDY DURATION: 104 WK), 1,000, 2,000 MG/KG FOR 78 WK (STUDY DURATION: 105 WK)) “inactive; negative”; (Strain/Sex: F344/MALE, Route: GAVAGE, 500 MG/KG FOR 103 WK (STUDY DURATION: 104 WK), 1,000, 2,000 MG/KG FOR 78 WK (STUDY DURATION: 105 WK), 500 MG/KG FOR 103 WK (STUDY DURATION: 104 WK), 1,000, 2,000 MG/KG FOR 78 WK (STUDY DURATION: 105 WK)) “inactive; negative”; (Strain/Sex: SPRAGUE-DAWLEY/FEMALE, Route: GAVAGE, 50, 250 MG/KG BW IN OLIVE OIL 1/D 4-5 D/WK FOR 52 WK (STUDY DURATION: LIFETIME), 50, 250 MG/KG BW IN OLIVE OIL 1/D 4-5 D/WK FOR 52 WK (STUDY DURATION: LIFETIME), Tumor Site: Type of Lesion: [BRAIN WAS ONLY SITE EVALUATED]) “inactive; negative”; (Strain/Sex: SPRAGUE-DAWLEY/FEMALE, Route: INHALATION, 25, 50, 100, 200, 300 PPM 4 HR/D, 5 D/WK FOR 52 WK (STUDY DURATION: LIFESPAN), 25, 50, 100, 200, 300 PPM 4 HR/D, 5 D/WK FOR 52 WK (STUDY DURATION: LIFESPAN), Tumor Site: Type of Lesion: MAMMARY GLAND: BENIGN TUMOR, MALIGNANT TUMOR) “active; positive”; (Strain/Sex: SPRAGUE-DAWLEY/FEMALE, Route: INHALATION, 25, 50, 100, 200, 300 PPM IN AIR 4 HR/D 5 D/WK FOR 52 WK (STUDY DURATION: LIFETIME), 25, 50, 100, 200, 300 PPM IN AIR 4 HR/D 5 D/WK FOR 52 WK (STUDY DURATION: LIFETIME), Tumor Site: Type of Lesion: [BRAIN WAS ONLY SITE EVALUATED]) “inactive; negative”; (Strain/Sex: SPRAGUE-DAWLEY/FEMALE, Route: INTRAGASTRIC, 50, 250 MG/KG IN OLIVE OIL 1/D, 4-5 D/WK FOR 52 WK (STUDY DURATION: LIFESPAN), 50, 250 MG/KG IN OLIVE OIL 1/D, 4-5 D/WK FOR 52 WK (STUDY DURATION: LIFESPAN)) “inactive; negative”. The carcinogen call reads like this: (Strain/Sex: SPRAGUE-DAWLEY/FEMALE, Route: INTRAPERITONEAL, 50 MG/RAT IN OLIVE OIL, 1/2 MO FOR 8 MO (STUDY DURATION: LIFESPAN)) “inactive; negative”; (Strain/Sex: SPRAGUE-DAWLEY/FEMALE, Route: SUBCUTANEOUS, 50 MG/RAT IN OLIVE OIL ONCE (STUDY DURATION: LIFESPAN)) “inactive; negative”; (Strain/Sex: SPRAGUE-DAWLEY/MALE, Route: GAVAGE, 50, 250 MG/KG BW IN OLIVE OIL 1/D 4-5 D/WK FOR 52 WK (STUDY DURATION: LIFETIME), 50, 250 MG/KG BW IN OLIVE OIL 1/D 4-5 D/WK FOR 52 WK (STUDY DURATION: LIFETIME), Tumor Site: Type of Lesion: [BRAIN WAS ONLY SITE EVALUATED]) “inactive; negative”; (Strain/Sex: SPRAGUE-DAWLEY/MALE, Route: INHALATION, 25, 50, 100, 200, 300 PPM 4 HR/D, 5 D/WK FOR 52 WK (STUDY DURATION: LIFESPAN), 25, 50, 100, 200, 300 PPM 4 HR/D, 5 D/WK FOR 52 WK (STUDY DURATION: LIFESPAN)) “inactive; negative”; (Strain/Sex: SPRAGUE-DAWLEY/MALE, Route: INHALATION, 25, 50, 100, 200, 300 PPM IN AIR 4 HR/D 5 D/WK FOR 52 WK (STUDY DURATION: LIFETIME), 25, 50, 100, 200, 300 PPM IN AIR 4 HR/D 5 D/WK FOR 52 WK (STUDY DURATION: LIFETIME), Tumor Site: Type of Lesion: [BRAIN WAS ONLY SITE EVALUATED]) “inactive; negative”; (Strain/Sex: SPRAGUE-DAWLEY/MALE, Route: INTRAGASTRIC, 50, 250 MG/KG IN OLIVE OIL 1/D, 4-5 D/WK FOR 52 WK (STUDY DURATION: LIFESPAN), 50, 250 MG/KG IN OLIVE OIL 1/D, 4-5 D/WK FOR 52 WK (STUDY DURATION: LIFESPAN)) “inactive; negative”. The carcinogen call by setting is: (Strain/Sex: SPRAGUE-DAWLEY/MALE, Route: INTRAPERITONEAL, 50 MG/RAT IN OLIVE OIL, 1/2 MO FOR 8 MO (STUDY DURATION: LIFESPAN)) “inactive; negative”; (Strain/Sex: SPRAGUE-DAWLEY/MALE, Route: SUBCUTANEOUS, 50 MG/RAT IN OLIVE OIL ONCE (STUDY DURATION: LIFESPAN)) “inactive; negative”; (Strain/Sex: STRAIN-CD/FEMALE, Route: INHALATION, 50, 200, 500, 1000 PPM 6HR/D 5 D/WK FOR 104 WK (STUDY DURATION:107 WK), 50, 200, 500, 1000 PPM 6HR/D 5 D/WK FOR 104 WK (STUDY DURATION:107 WK)) “inactive; negative”; (Strain/Sex: STRAIN-CD/MALE, Route: INHALATION, 50, 200, 500, 1000 PPM 6 HR/D 5 D/WK FOR 104 WK (STUDY DURATION:107 WK), 50, 200, 500, 1000 PPM 6 HR/D 5 D/WK FOR 104 WK (STUDY DURATION:107 WK)) “inactive; negative”.
